{"source": "patent US20140315972A1", "about": "“RS)-2-(2-oxo-4-phenylpyrrolidin-1-yl)acetamide compound having modulatory activity with a commensurate effect, pharmaceutical substance (variants) and its application, composition (variants) thereof” (priority 2011, published 2014)", "key": {"mice [1]": {"system": "mice", "test": "Acute toxicity, single intraperitoneal injection in male mice", "assay_type": "in vivo", "conditions": "male mice 18-24 g; single i.p.", "method": "(§1) Tables 2, 2.1 and 2.2 present the results of acute toxicity studies of the Compounds with active substance content in at least white outbred male mice (body weight 18-24 g) and white outbred rats 30-35 days of age, of both sexes with a single dose. Calculation of toxic doses was made using the Wilcoxon and Litchfield method. Observations were made over 24 hours and 14 days after a single dose.\n(§2) LD50 in rat pups after intragastric administration was not found. Intragastric administration to rat pups of doses of more than 1000 mg/kg is technically impossible due to the small volume of the stomach (Table 2.2)."}, "[2]": {"test": "Acute toxicity, single intraperitoneal injection in rats aged 30-35 days", "assay_type": "in vivo", "conditions": "both sexes, white outbred, rat, in vivo, ip; rats 30-35 days; single i.p.", "method": "as §1, §2"}, "rats [3]": {"system": "rats", "test": "Acute toxicity, single intraperitoneal injection in rats aged 30-35 days", "assay_type": "in vivo", "method": "as §1, §2"}, "rats [4]": {"system": "rats", "test": "Scopolamine-induced CRPA amnesia in rats 30-35 days of age", "assay_type": "in vivo", "description": "Phenotropil has a pronounced mnemotropic and nootropic activity. The results of the study of the antiamnestic activity (classical technique in the equipment manufactured by Lafayette Instrument Co, USA) in the retrograde amnesia of the passive avoidance conditional reflex (CRPA) induced by maximal electroshock (MES) and scopolamine in male rats (180-250 g) are shown in Table 7. […] Taking into account the studies using the open field and cross maze tests, the nootropic action component of the modulatory drug not only may be more pronounced, but is broader in manifestation depending on the type of disorder or in unfamiliar situational conditions. The pronounced nootropic activity of Phenotropil (100, 200, 300 mg/kg) also manifests in rat pups of both sexes 30-35 days of age (Table 7.1) after scopolamine-induced CRPA amnesia.\nIn studying immature animals, it must be considered that to generate CRPA it is required, as was established, to apply higher educational incentives (0.6 mA, 8 pulses vs 5 pulses at 0.45 mA in adult rats) with re-training (after 48 hours). Development of amnesia also requires a higher dose of scopolamine (1.3 mg/kg) in rat pups. […] Phenotropil has not only a psychomodulatory (Ψ-modulatory) activity but also a Ψ-operandmodulatory activity given that the mnemotropic effect is associated with the expression of specific proteins and genes involved in memory, attention and learning."}, "mice [5]": {"system": "mice", "test": "Duration of swimming in cold (2° C.) and normal (25° C.) water", "assay_type": "in vivo", "conditions": "for Duration of swimming at day 28: 4-week administration 50 mg/kg", "method": "Stimulatory effect on the duration of swimming in cold (2° C.) and normal (25° C.) water (Table 8.1-8.1.1) of Phenotropil (25 and 50 mg/kg) compared with the control (distilled water) and Benzedrine (2.5 mg/kg) was studied in white outbred male mice (18-26 g) compared to control (distilled water) when intraperitoneally administered, 60 min after the administration and with a course administration for 4 weeks administration on day 28 (Table 8.1.2). […] At normal temperature of water, the effect of Benzedrine was not modified and stayed at 34%.\nThe advantage of psychomodulator Phenotropil is obvious both with the single dose and the course use, by the effect on physical performance and stability of the body, both in normal and more adverse temperature conditions."}, "patients": {"system": "patients", "test": "Amenorrhea in patients on neuroleptic therapy", "assay_type": "in vivo, human", "conditions": "tablets 100 or 200 mg per day, 3 months", "method": "Investigation of the effect of Phenotropil in amenorrhea and functional dysmenorrhea was conducted on groups of patients aged 14-27 years. The first group (20-27 years) diagnosed with schizophrenia, was on the maintenance neuroleptic therapy and had menstrual cycle irregularities in the form of amenorrhea (for more than 6 months). Of those, 4 had amenorrhea of not established nature, observed also prior to the pronounced primary manifestation of mental disorder, 6 patients had amenorrhea that developed during treatment with neuroleptics. Phenotropil, tablets was administered in doses of 100 mg and 200 mg per day as part of a complex antipsychotic therapy as a corrector of psychogenic side effects of neuroleptics. The dose was selected based on the individual and clinical features of the patients. The duration of Phenotropil therapy was 3 months. Two groups (14-18 years) with functional dysmenorrhea and manifestations of pronounced spastic symptoms were studied. Duration of the Phenotropil monotherapy (50 and 100 mg per day) was one month followed by administration of the drug at one-week courses as a preventive agent. Patients with functional dysmenorrhea were investigated for cAMP level in comparison with the norm control group. The cAMP level was determined using the standard kits, by the method based on the competition with the labeled cyclic 3′,5-adenosine monophosphate in the level of binding with […]."}, "male subjects": {"system": "male subjects", "test": "Anti-seasick (anti-kinetosis) activity, visual-vestibular effects", "assay_type": "in vivo, human", "method": "Investigations of the anti-seasick (anti-kinetosis) activity of agents with creation of visual-vestibular effects modeling motion sickness were performed on male subjects (23-35 years). Test with continuous exposure to the Coriolis acceleration was performed by rotating vestibulometric chair with angular velocity 180°/s. The eyes of the subject were open, while the optokinetic drum rotated in one direction with the chair with a speed of 90°/s. The time of visual-vestibular effect, vestibulo-vegetative reactions, optokinetic nystagmus before and after kinesia was determined when the drum rotated alternately for two minutes in the R- and S-directions at a speed of 90° s, with a break for 1 minute between rotations, as well as the severity of vestibular effects was measured and the Km was calculated. The studies were conducted 60 minutes after administration of Phenotropil in doses of 25, 50, 100 and 300 mg. Baseline state values and placebo values served as control. Alternate approaches for each participant were performed a week after each previous test. The modulation factor under normal conditions without exposure was 0.97."}, "[6]": {"conditions": "male subjects, 25, 50, 100, 300 mg"}}}
{"smiles": "NC(=O)CN1CC(c2ccccc2)CC1=O", "note": "(racemic) [Compound 1, (RS)-2-(2-oxo-4-phenylpyrrolidine-1-yl)acetamide]", "values": [{"measurement": "LD50", "setting": "mice [1]", "value": "1042 (982.9-1102.0) mg/kg"}, {"measurement": "LD50 at 14 days", "setting": "[2]", "value": 1030, "unit": "mg/kg"}, {"measurement": "LD16", "setting": "rats [3]; rats 30-35 days, single i.p.", "value": "LD16 = 906.7 mg/kg"}, {"measurement": "LD84", "setting": "rats [3]; rats 30-35 days, single i.p.", "value": "LD84 = 1159.0 mg/kg"}, {"measurement": "Dead/total number", "setting": "rats [3]; rats 30-35 days, single i.p. 800 mg/kg", "value": "0/10"}, {"measurement": "Dead/total number", "setting": "rats [3]; rats 30-35 days, single i.p. 1000 mg/kg", "value": "4/10"}, {"measurement": "Dead/total number", "setting": "rats [3]; rats 30-35 days, single i.p. 1100 mg/kg", "value": "9/10"}, {"measurement": "Dead/total number", "setting": "rats [3]; rats 30-35 days, single i.p. 1200 mg/kg", "value": "9/10"}, {"measurement": "Dead/total number", "setting": "rats [3]; rats 30-35 days, single i.p. 1500 mg/kg", "value": "10/10"}, {"measurement": "% of dead rat pups", "setting": "rats [3]; single i.p. 800 mg/kg", "value": 0, "unit": "%"}, {"measurement": "% of dead rat pups", "setting": "rats [3]; single i.p. 1000 mg/kg", "value": 40, "unit": "%"}, {"measurement": "% of dead rat pups", "setting": "rats [3]; single i.p. 1100 mg/kg", "value": 90, "unit": "%"}, {"measurement": "% of dead rat pups", "setting": "rats [3]; single i.p. 1200 mg/kg", "value": 90, "unit": "%"}, {"measurement": "% of dead rat pups", "setting": "rats [3]; single i.p. 1500 mg/kg", "value": 100, "unit": "%"}, {"measurement": "LP1 (training)", "setting": "rats [4]; 100 mg/kg", "value": "7.2 ± 2.8"}, {"measurement": "LP2 (at 24 hours)", "setting": "rats [4]; 100 mg/kg", "value": "25.2 ± 3.8"}, {"measurement": "ΔLP", "setting": "rats [4]; 100 mg/kg", "value": "18.0 ± 2.9"}, {"measurement": "LP1 (training)", "setting": "rats [4]; 200 mg/kg", "value": "11.0 ± 3.0"}, {"measurement": "LP2 (at 24 hours)", "setting": "rats [4]; 200 mg/kg", "value": "45.2 ± 7.3"}, {"measurement": "ΔLP", "setting": "rats [4]; 200 mg/kg", "value": "34.2 ± 9.0"}, {"measurement": "LP1 (training)", "setting": "rats [4]; 300 mg/kg", "value": "8.0 ± 3.0"}, {"measurement": "LP2 (at 24 hours)", "setting": "rats [4]; 300 mg/kg", "value": "82.4 ± 4.3"}, {"measurement": "ΔLP", "setting": "rats [4]; 300 mg/kg", "value": "74.4 ± 3.7"}, {"measurement": "Duration of swimming", "setting": "mice [5]; single dose 25 mg/kg i.p.", "value": "161.90 ± 15.00", "unit": "min"}, {"measurement": "Duration of swimming", "setting": "mice [5]; single dose 50 mg/kg i.p.", "value": "209.83 ± 14.85", "unit": "min"}, {"measurement": "Duration of swimming at day 28", "setting": "mice [5]; water 2° C.", "value": "2.34 ± 0.15", "unit": "min"}, {"measurement": "Duration of swimming", "setting": "mice [5]; water 2° C., single dose 25 mg/kg i.p.", "value": "2.10 ± 0.17", "unit": "min"}, {"measurement": "Duration of swimming", "setting": "mice [5]; water 2° C., single dose 50 mg/kg i.p.", "value": "2.30 ± 0.22", "unit": "min"}, {"measurement": "Duration of swimming at day 28", "setting": "mice [5]; water 25° C.", "value": "222.03 ± 10.95", "unit": "min"}, {"measurement": "Duration of swimming vs control", "setting": "mice [5]; water 25° C., single dose 25 mg/kg i.p.", "value": "+35%"}, {"measurement": "patients restored, amenorrhea of unknown nature", "setting": "patients", "value": 30.0, "unit": "%"}, {"measurement": "patients restored, amenorrhea on antipsychotic therapy", "setting": "patients", "value": 40.0, "unit": "%"}, {"measurement": "patients with restored menstruations and menstrual cycle", "setting": "patients; n=10", "value": 70, "unit": "%"}, {"measurement": "NEE, negative effects of exposure", "setting": "male subjects; humans, 25-300 mg", "value": "22.5 ± 7.5", "unit": "min"}, {"measurement": "VVE, tolerability of the visual-vestibular effects", "setting": "male subjects; humans, 25-300 mg", "value": "7.70 ± 0.6", "unit": "min"}, {"measurement": "VVR, severity of the vestibulo-vegetative reactions", "setting": "male subjects; humans, 25-300 mg", "value": "2.3 ± 0.9", "unit": "points"}, {"measurement": "improvement of visual-vestibular tolerability vs placebo, average", "setting": "male subjects; [6]", "value": "+80%"}, {"measurement": "reduction in severity of vestibulo-vegetative reactions vs placebo, average", "setting": "male subjects; [6]", "value": 68, "unit": "%"}, {"measurement": "duration of negative consequences condition", "setting": "male subjects; male subjects, placebo 4-6 hours", "value": "15 to 30", "unit": "min"}]}
